{"source": "patent US9927444B2", "about": "“Bone marrow-derived hematopoietic progenitor cells and endothelial progenitor cells as prognostic indicators for cancer” (Cornell University, priority 2011, dated 2018)", "key": {"serum ceruloplasmin (Cp)": {"test_system": "serum ceruloplasmin (Cp)", "test": "Serum ceruloplasmin (Cp) levels / copper depletion, phase II TM trial", "format": "in vivo, human", "procedure": "(§1) This phase II, open-label, single-arm study was conducted to assess patients with breast cancer at high risk for relapse. Patients were enrolled on an Institutional Review Board approved trial (NCT00195091, 0903-882, 0309006307) at Weill Cornell Medical College (WCMC) Iris Cantor Breast Cancer Center. Written informed consent was obtained prior to undergoing any study-specific procedures in accordance with the Declaration of Helsinki.\nTM was administered in two phases, induction and maintenance: A) Induction: Patients self-administered TM 180 mg by mouth daily in 4 divided doses until serum Cp levels decreased to a target range of 5-16 mg/dL. One month of TM therapy comprised 1 cycle. Cp levels were tested every 2 weeks for the first 4 weeks and then weekly until target Cp was reached. When Cp levels were within target range, patients were switched to the maintenance phase. B) Maintenance: TM 100 mg taken daily in divided doses. Patients were followed every 2 weeks for 4 weeks to ensure Cp levels were stable then every 4 weeks. Dose reductions in 20 mg increments were allowed to minimize toxicity. Dose increases in 20 mg increments were allowed every 2 weeks to keep Cp levels in target range. […] Patients brought completed medication logs to each visit. The duration of the trial was 2 years.\nThe ITT population consisted of 39 patients. […] Target for copper depletion was defined as Cp below 17 mg/dL. Of those who took at least one dose of TM, 59% […] of patients were effectively copper depleted and 15 patients (37.5%) were unable to be copper depleted. Mean Cp of copper depleted pts and non-copper depleted patients was 13.5 and 22.3 mg/dL, respectively (FIG. 1a). Patients spent a median of 78% of time (range 58 to 100%) within target Cp levels during the study . . . . […] 91% of triple-negative patients successfully copper depleted compared to the hormone-receptor subtypes (38-43%) and HER2-positive subtypes (40-67%) (FIG. 7B)."}, "[1]": {"test_system": "VEGFR2+ endothelial progenitor cells (EPCs)", "test": "Enumeration of circulating EPCs by flow cytometry, phase II TM trial", "format": "in vivo, human", "procedure": "(§2) Ten to 20 mL of venous blood were collected in EDTA-containing tubes and processed within 12 hours. Peripheral blood mononuclear cells were isolated by Ficoll density-gradient centrifugation. To quantitate circulating EPCs, cells were stained with CD133-PE (Miltenyi Biotec, Auburn, Calif.), VEGFR2-APC (R&D Systems, Minneapolis, Minn.), and CD45-PerCP (BD Biosciences, Franklin Lakes, N.J.). To quantitate HPCs, cells were stained with CD34-FITC (BD Biosciences), VEGFR1-APC (R&D Systems), and CD45-PerCP (BD Biosciences). An aliquot of cells was also stained with the appropriate isotype controls (mouse anti-human IgG1k). Samples were analyzed using a FACSCalibur flow cytometer (Bectin Dickinson, San Jose, Calif.). Three hundred thousand events were collected in the nucleated cell gate (excludes debris and platelets). Data analysis was done using FlowJo software (FlowJo, Ashland, Oreg.). A series of consecutive gates were made to include and exclude acquired events to quantitate specific populations such as CD45^+, CD34^+, VEGFR1^+. The number of EPCs and HPCs per mL of blood was calculated as follows: HPC/mL=(# HPC events/# lymphocyte events)×absolute lymphocyte count (lymphocytes/mL). EPC/mL=(# EPC events/# lymphocyte events)×absolute lymphocyte count (lymphocytes/mL). HPCs were defined as CD45^+, CD34^+, VEGFR1^+ (FIGS. 5A-5C). […]\n(§3) PFS was analyzed using survival analysis techniques."}, "[2]": {"test_system": "VEGFR1+ hematopoietic progenitor cells (HPCs)", "test": "Enumeration of circulating HPCs by flow cytometry, phase II TM trial", "format": "in vivo, human", "details": "patients on TM", "procedure": "as §2, §3"}, "[3]": {"test_system": "breast cancer at high risk for relapse", "test": "Clinical outcomes (relapse, progression-free survival), phase II TM trial", "format": "in vivo, human", "procedure": "as §1\nPatients underwent imaging of investigator's choice, CT of chest, abdomen, and pelvis or PET/CT every 6 months and as needed to assess for relapse, using Response Evaluation Criteria in Solid Tumors (RECIST).\nas §3"}, "SDF1, VEGFR2, C-kit": {"test_system": "SDF1, VEGFR2, C-kit", "test": "Plasma angiogenic factors and cytokine profiling, phase II TM trial", "format": "in vivo, human", "procedure": "Plasma SDF-1 was detected by enzyme-linked immunosorbent assay (R&D Systems) according to manufacturer's protocol. Plasma levels of c-kit, VEGF, VEGFR1, VEGFR2, bFGF, and PIGF were detected by multiplex assay (Meso Scale Discovery, Gaithersburg, Md.) per manufacturer protocol.\nas §3"}, "[4]": {"details": "in vivo", "source_text": "(§4) The National Cancer Institute—Common Toxicity Criteria for Adverse Events (CTCAE) version 3.0 were used for toxicity and adverse event reporting. In the event of grade 3/4 toxicity, dosing was held until recovery. Treatment was resumed at the investigator's discretion at 50% of the previous dose. […] In the event of grade 2 toxicity, the dose of TM was held until recovery and a new cycle could be initiated at 100%. If grade 2 toxicity recurred, dosing was held until recovery and the next cycle was resumed at 50%. All patients were available to be evaluated for toxicity.\n(§5) The intent-to-treat (ITT) population consisted of all patients who received at least one dose of TM. […] The following outcomes were recorded: toxicity attributable to TM, time to progression of disease, number of circulating hemangiogenic progenitor cells, serum markers of angiogenesis. Descriptive statistics for demographic and angiogenic variables were calculated for all patients. […] All p-values were two-sided with statistical significance evaluated at the 0.05 alpha level. All analyses were performed in SPSS Version 18.0 (SPSS Inc., Chicago, Ill.)."}, "[5]": {"test_system": "advanced malignancy refractory to standard therapy", "details": "phase I; cited from earlier work"}, "[6]": {"test_system": "advanced renal cell carcinoma", "details": "13 patients; cited from earlier work"}, "malignant mesothelioma": {"test_system": "malignant mesothelioma", "details": "after adjuvant TM; doubling from 10; cited from earlier work"}, "[7]": {"details": "reversible, managed with dose reductions; cited from earlier work"}, "[8]": {"details": "stored under argon; cited from earlier work"}, "[9]": {"test": "Safety and tolerability (CTCAE version 3.0), phase II TM trial", "source_text": "as §4, §5"}}, "data": [{"smiles": "[SH-].[SH-].[S]=[Mo]=[S]", "note": "[TM, Tetrathiomolybdate]", "values": [{"measurement": "patients unable to be copper depleted", "setting": "serum ceruloplasmin (Cp); 15 patients", "result": 37.5, "unit": "%"}, {"measurement": "patients successfully copper depleted", "setting": "serum ceruloplasmin (Cp); HER2-positive subtypes", "result": "40-67%"}, {"measurement": "mean Cp level on TM", "setting": "serum ceruloplasmin (Cp); ITT population, at a median of 4 weeks, median baseline Cp 29.7 mg/dL (range 21 to 47), range 7 to 26", "result": 14.2, "unit": "mg/dL"}, {"measurement": "mean Cp of copper depleted pts", "setting": "serum ceruloplasmin (Cp); copper depleted patients", "result": 13.5, "unit": "mg/dL"}, {"measurement": "patients successfully copper depleted", "setting": "serum ceruloplasmin (Cp); hormone-receptor subtypes", "result": "38-43%"}, {"measurement": "mean Cp of non-copper depleted patients", "setting": "serum ceruloplasmin (Cp); non-copper depleted patients", "result": 22.3, "unit": "mg/dL"}, {"measurement": "median % of time within target Cp levels during the study", "setting": "serum ceruloplasmin (Cp); range 58 to 100%", "result": 78, "unit": "%"}, {"measurement": "patients effectively copper depleted", "setting": "serum ceruloplasmin (Cp); those who took at least one dose of TM, target Cp below 17 mg/dL, printed 23/40", "result": 59, "unit": "%"}, {"measurement": "patients successfully copper depleted", "setting": "serum ceruloplasmin (Cp); triple-negative patients", "result": 91, "unit": "%"}, {"measurement": "median number of EPCs", "setting": "[1]; at 1 year of TM therapy, median baseline 0.0398 (range 0-0.21), range 0-0.18", "result": 0.0363, "unit": "cells/uL"}, {"measurement": "EPCs relative to baseline", "setting": "[1]; majority of patients, when Cp was in the target range", "result": "maintained below baseline"}, {"measurement": "change in HPCs", "setting": "[2]", "result": "no significant changes"}, {"measurement": "10-month PFS", "setting": "[3]; all patients, 95% CI, 74.6-96.8%", "result": 85.0, "unit": "%"}, {"measurement": "patients who developed recurrence", "setting": "[3]; first 12 months of study, six patients", "result": 15, "unit": "%"}, {"measurement": "10-month PFS", "setting": "[3]; hormone-receptor-positive patients", "result": 85.7, "unit": "%"}, {"measurement": "10-month PFS", "setting": "[3]; stage 2 and 3 patients", "result": 89.3, "unit": "%"}, {"measurement": "10-month PFS", "setting": "[3]; stage 4 NED patients", "result": 75.0, "unit": "%"}, {"measurement": "10-month PFS", "setting": "[3]; triple-negative patients", "result": 81.8, "unit": "%"}, {"measurement": "mean SDF1", "setting": "SDF1, VEGFR2, C-kit; non-relapsed patients, decreased from 1870", "result": 1811, "unit": "pg/mL"}, {"measurement": "change in SDF1, VEGFR2, and C-kit", "setting": "SDF1, VEGFR2, C-kit; patients while on therapy", "result": "did not significantly change"}, {"measurement": "mean SDF1", "setting": "SDF1, VEGFR2, C-kit; patients who relapsed, increased from 2093", "result": 3052, "unit": "pg/mL"}, {"measurement": "treatment-related deaths", "setting": "[4]", "result": "no treatment-related deaths"}, {"measurement": "induction of copper depletion", "setting": "[5]", "result": "effective at inducing copper depletion"}, {"measurement": "patients maintaining stable disease for at least 90 days", "setting": "[5]", "result": "15 of 40"}, {"measurement": "tolerability", "setting": "[5]", "result": "well-tolerated"}, {"measurement": "median duration of stable disease", "setting": "[6]", "result": 34.5, "unit": "weeks"}, {"measurement": "time to progression", "setting": "malignant mesothelioma", "result": 20, "unit": "months"}, {"measurement": "patients with grade 3 or 4 hematologic toxicity", "setting": "[7]", "result": "up to 40%"}, {"measurement": "stability when exposed to air", "setting": "[8]", "result": 8, "unit": "weeks"}, {"measurement": "grade 3 anemia, cycles", "setting": "[9]; 1 cycle, patient later diagnosed with B12 deficiency", "result": 0.2, "unit": "%"}, {"measurement": "patients with dose interruptions, delays, reductions, or omissions due to toxicity", "setting": "[9]; 3 of 39 ITT patients", "result": 7.7, "unit": "%"}, {"measurement": "grade 1 peripheral neuropathy, cycles", "setting": "[9]; 6 cycles", "result": 1.4, "unit": "%"}, {"measurement": "grade ¾ neutropenia, patients", "setting": "[9]; 9 patients", "result": 23.1, "unit": "%"}, {"measurement": "grade ¾ neutropenia, cycles", "setting": "[9]; 13 cycles", "result": 3.1, "unit": "%"}, {"measurement": "grade ½ anemia, patients", "setting": "[9]; 14 patients", "result": 35.9, "unit": "%"}, {"measurement": "grade ½ neutropenia, patients", "setting": "[9]; 23 patients", "result": 59.0, "unit": "%"}, {"measurement": "grade 1 fatigue, cycles", "setting": "[9]; 29 cycles", "result": 6.8, "unit": "%"}, {"measurement": "grade ½ anemia, cycles", "setting": "[9]; 50 cycles", "result": 11.7, "unit": "%"}, {"measurement": "grade ½ neutropenia, cycles", "setting": "[9]; 67 of 426 cycles", "result": 15.7, "unit": "%"}, {"measurement": "sulfurous eructations, cycles", "setting": "[9]; 79 cycles, resolved with a PPI in >90% of patients", "result": 18.5, "unit": "%"}, {"measurement": "overall tolerability", "setting": "[9]; 426 cycles in 39 patients, first 12 months", "result": "well tolerated"}, {"measurement": "grade 3 or 4 non-hematologic toxicity", "setting": "[9]; in vivo", "result": "no grade 3 or 4 non-hematologic toxicity"}, {"measurement": "grade 4 anemia", "setting": "[9]; in vivo", "result": "no grade 4 incidences"}, {"measurement": "grade 1 or 2 gastrointestinal toxicity (nausea, vomiting or diarrhea)", "setting": "[9]; managed with dose adjustment alone", "result": "Eight"}]}]}
